In patent US20250026778A1 (TIUMBIO CO., LTD., priority 2021, published 2025):

Each compound was assayed against T1, his-galectin-3 (Homo sapiens, UniProt P17931) (assay: TR-FRET assay (in vitro galectin-3 binding inhibitory activity test)). Settings: Table 1; compound at 20 μM; 60 nM his-galectin-3, 15 nM biotin-ASF; read-out: % Inhibitory activity (at 20 μM).
T1 construct: purchased Abcam
In short: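 Compound is premixed with his-galectin-3 (60 nM final), then biotin-ASF (15 nM), Tb anti-His antibody (2 nM) and streptavidin-d2 (20 nM) are added. After at least 3.5 hours at RT in HEPES/NaCl buffer with Tween 20 and BSA, TR-FRET is read at 615/665 nm. DMSO serves as the uninhibited control, ASF omission as background.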

T1 sequence (P17931 whole entry): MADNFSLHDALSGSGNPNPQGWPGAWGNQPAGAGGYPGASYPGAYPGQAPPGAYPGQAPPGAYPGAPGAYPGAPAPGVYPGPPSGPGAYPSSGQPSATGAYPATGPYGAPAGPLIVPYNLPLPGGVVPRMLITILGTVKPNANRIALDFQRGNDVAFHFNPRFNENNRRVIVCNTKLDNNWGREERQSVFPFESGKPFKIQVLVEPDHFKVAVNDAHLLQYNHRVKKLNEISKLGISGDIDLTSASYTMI

Row | inhibition at 20 µM [%] | Compound
1 | < 25 | CN(Cc1cccc(Cl)c1)[C@@H]1CCO[C@]12O[C@H](CO)[C@H](O)[C@H](n1cc(-c3cc(F)c(F)c(F)c3)nn1)[C@H]2O [Compound A103, (4R,5S,7R,8R,9S,10R)-4-((3-chlorobenzyl)(methyl)amino)-7-(hydroxymethyl)-9-(4-(3,4,5-trifluorophenyl)-1H-1,2,3-triazol-1-yl)-1,6-dioxaspiro[4.5]decane-8,10-diol]
2 | < 25 | OC[C@H]1O[C@]2(OCC[C@H]2NCC2CCCC2)[C@H](O)[C@@H](n2cc(-c3cc(F)c(F)c(F)c3)nn2)[C@H]1O [Compound A104, (4R,5S,7R,8R,9S,10R)-4-((cyclopentylmethyl)amino)-7-(hydroxymethyl)-9-(4-(3,4,5-trifluorophenyl)-1H-1,2,3-triazol-1-yl)-1,6-dioxaspiro[4.5]decane-8,10-diol]
3 | 25 to 50 | O=C(N[C@@H]1CCO[C@]12O[C@H](CO)[C@H](O)[C@H](n1cc(-c3cc(F)c(F)c(F)c3)nn1)[C@H]2O)C1CCCC1 [Compound A107, N-((4R,5S,7R,8R,9S,10R)-8,10-dihydroxy-7-(hydroxymethyl)-9-(4-(3,4,5-trifluorophenyl)-1H-1,2,3-triazol-1-yl)-1,6-dioxaspiro[4.5]decan-4-yl)cyclopentancarboxamide]
4 | 25 to 50 | O=C(CC1CCCC1)N[C@@H]1CCO[C@]12O[C@H](CO)[C@H](O)[C@H](n1cc(-c3cc(F)c(F)c(F)c3)nn1)[C@H]2O [Compound A108, 2-cyclopentyl-N-((4R,5S,7R,8R,9S,10R)-8,10-dihydroxy-7-(hydroxymethyl)-9-(4-(3,4,5-trifluorophenyl)-1H-1,2,3-triazol-1-yl)-1,6-dioxaspiro[4.5]decan-4-yl)acetamide]
5 | < 25 | OC[C@H]1O[C@@]2(CCCCS2)[C@H](O)[C@@H](n2cc(-c3cc(F)c(F)c(F)c3)nn2)[C@H]1O [Compound A109, (2R,3R,4S,5R,6R)-2-(hydroxymethyl)-4-(4-(3,4,5-trifluorophenyl)-1H-1,2,3-triazol-1-yl)-1-oxa-7-thiaspiro[5.5]undecane-3,5-diol]
6 | < 25 | OC[C@H]1O[C@@]2(CCCNC2)[C@H](O)[C@@H](n2cc(-c3cc(F)c(F)c(F)c3)nn2)[C@H]1O [Compound A110, (2R,3R,4S,5R,6R)-2-(hydroxymethyl)-4-(4-(3,4,5-trifluorophenyl)-1H-1,2,3-triazol-1-yl)-1-oxa-8-azaspiro[5.5]undecane-3,5-diol]
7 | 25 to 50 | O=C(Cc1cccc2ccccc12)N[C@@H]1CCO[C@]12O[C@H](CO)[C@H](O)[C@H](n1cc(-c3cc(F)c(F)c(F)c3)nn1)[C@H]2O [Compound A111, N-((4R,5S,7R,8R,9S,10R)-8,10-dihydroxy-7-(hydroxymethyl)-9-(4-(3,4,5-trifluorophenyl)-1H-1,2,3-triazol-1-yl)-1,6-dioxaspiro[4.5]decan-4-yl)-2-(naphthalen-1-yl)acetamide]
8 | 50 to 75 | O=C(Cc1ccccc1Cl)N[C@@H]1CCO[C@]12O[C@H](CO)[C@H](O)[C@H](n1cc(-c3cc(F)c(F)c(F)c3)nn1)[C@H]2O [Compound A112, 2-(2-chlorophenyl)-N-((4R,5S,7R,8R,9S,10R)-8,10-dihydroxy-7-(hydroxymethyl)-9-(4-(3,4,5-trifluorophenyl)-1H-1,2,3-triazol-1-yl)-1,6-dioxaspiro[4.5]decan-4-yl)acetamide]
9 | 50 to 75 | O=C(Cc1cccc(F)c1)N[C@@H]1CCO[C@]12O[C@H](CO)[C@H](O)[C@H](n1cc(-c3cc(F)c(F)c(F)c3)nn1)[C@H]2O [Compound A113, N-((4R,5S,7R,8R,9S,10R)-8,10-dihydroxy-7-(hydroxymethyl)-9-(4-(3,4,5-trifluorophenyl)-1H-1,2,3-triazol-1-yl)-1,6-dioxaspiro[4.5]decan-4-yl)-2-(3-fluorophenyl)acetamide]
10 | < 25 | O=C(N[C@@H]1CCO[C@]12O[C@H](CO)[C@H](O)[C@H](n1cc(-c3cc(F)c(F)c(F)c3)nn1)[C@H]2O)C1(c2ccccc2)CC1 [Compound A114, N-((4R,5S,7R,8R,9S,10R)-8,10-dihydroxy-7-(hydroxymethyl)-9-(4-(3,4,5-trifluorophenyl)-1H-1,2,3-triazol-1-yl)-1,6-dioxaspiro[4.5]decan-4-yl)-1-phenylcyclopropanecarboxamide]
11 | 50 to 75 | O=C(Cc1ccc2ccccc2c1)N[C@@H]1CCO[C@]12O[C@H](CO)[C@H](O)[C@H](n1cc(-c3cc(F)c(F)c(F)c3)nn1)[C@H]2O [Compound A115, N-((4R,5S,7R,8R,9S,10R)-8,10-dihydroxy-7-(hydroxymethyl)-9-(4-(3,4,5-trifluorophenyl)-1H-1,2,3-triazol-1-yl)-1,6-dioxaspiro[4.5]decan-4-yl)-2-(naphthalen-2-yl)acetamide]
12 | 50 to 75 | COc1cccc(CC(=O)N[C@@H]2CCO[C@]23O[C@H](CO)[C@H](O)[C@H](n2cc(-c4cc(F)c(F)c(F)c4)nn2)[C@H]3O)c1 [Compound A116, N-((4R,5S,7R,8R,9S,10R)-8,10-dihydroxy-7-(hydroxymethyl)-9-(4-(3,4,5-trifluorophenyl)-1H-1,2,3-triazol-1-yl)-1,6-dioxaspiro[4.5]decan-4-yl)-2-(3-methoxyphenyl)acetamide]
13 | 50 to 75 | O=C(Cc1ccc(Cl)cc1)N[C@@H]1CCO[C@]12O[C@H](CO)[C@H](O)[C@H](n1cc(-c3cc(F)c(F)c(F)c3)nn1)[C@H]2O [Compound A117, 2-(4-chlorophenyl)-N-((4R,5S,7R,8R,9S,10R)-8,10-dihydroxy-7-(hydroxymethyl)-9-(4-(3,4,5-trifluorophenyl)-1H-1,2,3-triazol-1-yl)-1,6-dioxaspiro[4.5]decan-4-yl)acetamide]
14 | > 75 | COc1cccc(C(=O)N[C@@H]2CCO[C@]23O[C@H](CO)[C@H](O)[C@H](n2cc(-c4cc(F)c(F)c(F)c4)nn2)[C@H]3O)c1 [Compound A118, N-((4R,5S,7R,8R,9S,10R)-8,10-dihydroxy-7-(hydroxymethyl)-9-(4-(3,4,5-trifluorophenyl)-1H-1,2,3-triazol-1-yl)-1,6-dioxaspiro[4.5]decan-4-yl)-3-methoxybenzamide]
15 | 25 to 50 | O=C(N[C@@H]1CCO[C@]12O[C@H](CO)[C@H](O)[C@H](n1cc(-c3cc(F)c(F)c(F)c3)nn1)[C@H]2O)c1ccc(Oc2ccccc2)cc1 [Compound A120, N-((4R,5S,7R,8R,9S,10R)-8,10-dihydroxy-7-(hydroxymethyl)-9-(4-(3,4,5-trifluorophenyl)-1H-1,2,3-triazol-1-yl)-1,6-dioxaspiro[4.5]decan-4-yl)-4-phenoxybenzamide]
16 | 25 to 50 | O=C(N[C@@H]1CCO[C@]12O[C@H](CO)[C@H](O)[C@H](n1cc(-c3cc(F)c(F)c(F)c3)nn1)[C@H]2O)c1ccccc1-c1ccccc1 [Compound A121, N-((4R,5S,7R,8R,9S,10R)-8,10-dihydroxy-7-(hydroxymethyl)-9-(4-(3,4,5-trifluorophenyl)-1H-1,2,3-triazol-1-yl)-1,6-dioxaspiro[4.5]decan-4-yl)-[1.1′ biphenyl]-2-carboxamide]
17 | 50 to 75 | O=C(N[C@@H]1CCO[C@]12O[C@H](CO)[C@H](O)[C@H](n1cc(-c3cc(F)c(F)c(F)c3)nn1)[C@H]2O)c1cccc(OC(F)(F)F)c1 [Compound A122, N-((4R,5S,7R,8R,9S,10R)-8,10-dihydroxy-7-(hydroxymethyl)-9-(4-(3,4,5-trifluorophenyl)-1H-1,2,3-triazol-1-yl)-1,6-dioxaspiro[4.5]decan-4-yl)-3-(trifluoromethoxy)benzamide]
18 | 50 to 75 | O=C(N[C@@H]1CCO[C@]12O[C@H](CO)[C@H](O)[C@H](n1cc(-c3cc(F)c(F)c(F)c3)nn1)[C@H]2O)c1cc2ccccc2o1 [Compound A123, N-((4R,5S,7R,8R,9S,10R)-8,10-dihydroxy-7-(hydroxymethyl)-9-(4-(3,4,5-trifluorophenyl)-1H-1,2,3-triazol-1-yl)-1,6-dioxaspiro[4.5]decan-4-yl)benzofuran-2-carboxamide]

Same assay, conditions: Table 3, found values; compound at 20 μM; 60 nM his-galectin-3, 15 nM biotin-ASF; read-out: % Inhibitory activity (at 20 μM)

Row | inhibition at 20 µM [%] | Compound
19 | 53.8 | O=C(Cc1ccccc1Cl)N[C@@H]1CCO[C@]12O[C@H](CO)[C@H](O)[C@H](n1cc(-c3cc(F)c(F)c(F)c3)nn1)[C@H]2O [Compound A112, 2-(2-chlorophenyl)-N-((4R,5S,7R,8R,9S,10R)-8,10-dihydroxy-7-(hydroxymethyl)-9-(4-(3,4,5-trifluorophenyl)-1H-1,2,3-triazol-1-yl)-1,6-dioxaspiro[4.5]decan-4-yl)acetamide]

Same assay, conditions: read-out: % Inhibitory activity (at 20 μM), Table 1; compound at 20 μM; 60 nM his-galectin-3, 15 nM biotin-ASF

Row | Compound | inhibition at 20 µM [%]
20 | OC[C@H]1O[C@]2(OCC[C@H]2NCc2ccccc2)[C@H](O)[C@@H](n2cc(-c3cc(F)c(F)c(F)c3)nn2)[C@H]1O [Compound A105, (4R,5S,7R,8R,9S,10R)-4-(benzylamino)-7-(hydroxymethyl)-9-(4-(3,4,5-trifluorophenyl)-1H-1,2,3-triazol-1-yl)-1,6-dioxaspiro[4.5]decane-8,10-diol] | < 25
21 | O=C(Cc1cccc(Cl)c1)N[C@@H]1CCO[C@]12O[C@H](CO)[C@H](O)[C@H](n1cc(-c3cc(F)c(F)c(F)c3)nn1)[C@H]2O [Compound A106, 2-(3-chlorophenyl)-N-((4R,5S,7R,8R,9S,10R)-8,10-dihydroxy-7-(hydroxymethyl)-9-(4-(3,4,5-trifluorophenyl)-1H-1,2,3-triazol-1-yl)-1,6-dioxaspiro[4.5]decan-4-yl)acetamide] | 50 to 75
22 | O=C(N[C@@H]1CCO[C@]12O[C@H](CO)[C@H](O)[C@H](n1cc(-c3cc(F)c(F)c(F)c3)nn1)[C@H]2O)c1cccc(Cl)c1 [Compound A119, 3-chloro-N-((4R,5S,7R,8R,9S,10R)-8,10-dihydroxy-7-(hydroxymethyl)-9-(4-(3,4,5-trifluorophenyl)-1H-1,2,3-triazol-1-yl)-1,6-dioxaspiro[4.5]decan-4-yl)benzamide] | > 75

Same assay, conditions: read-out: % Inhibitory activity (at 20 μM), Table 3, found values; compound at 20 μM; 60 nM his-galectin-3, 15 nM biotin-ASF

Row | Compound | inhibition at 20 µM [%]
23 | O=C(N[C@@H]1CCO[C@]12O[C@H](CO)[C@H](O)[C@H](n1cc(-c3cc(F)c(F)c(F)c3)nn1)[C@H]2O)c1cccc(Cl)c1 [Compound A119, 3-chloro-N-((4R,5S,7R,8R,9S,10R)-8,10-dihydroxy-7-(hydroxymethyl)-9-(4-(3,4,5-trifluorophenyl)-1H-1,2,3-triazol-1-yl)-1,6-dioxaspiro[4.5]decan-4-yl)benzamide] | 93.7
